According to the NIST ThermoML archive (doi:10.1016/j.jct.2011.02.008):
Numbers after ± are expanded uncertainties.

Test: xn = mol fraction of the nth substance listed
Details: 288.15 K, Liquid, Vibrating tube method

COC(=O)c1ccccc1 [methyl benzoate] + CCCCCCO
mass density [kg/m3]
Details | 1000 kPa | 5000 kPa | 10000 kPa | 15000 kPa | 20000 kPa | 25000 kPa | 30000 kPa | 35000 kPa | 40000 kPa
x1 = 0.1004 | – | 852.3 ± 2.4 | 855.5 ± 2.4 | 858.5 ± 2.4 | 861.5 ± 2.4 | 864.3 ± 2.4 | 867.1 ± 2.4 | 869.8 ± 2.4 | 872.4 ± 2.4
x1 = 0.2007 | – | 879.2 ± 2.4 | 882.4 ± 2.4 | 885.5 ± 2.4 | 888.4 ± 2.4 | 891.2 ± 2.4 | 894 ± 2.4 | 896.7 ± 2.4 | 899.3 ± 2.4
x1 = 0.3007 | – | 906.4 ± 2.4 | 909.5 ± 2.4 | 912.6 ± 2.4 | 915.5 ± 2.4 | 918.3 ± 2.4 | 921.1 ± 2.4 | 923.8 ± 2.4 | 926.4 ± 2.4
x1 = 0.4013 | – | 933.6 ± 2.4 | 936.7 ± 2.4 | 939.7 ± 2.4 | 942.6 ± 2.4 | 945.4 ± 2.4 | 948.2 ± 2.4 | 950.9 ± 2.4 | 953.5 ± 2.4
x1 = 0.5005 | – | 960.4 ± 2.4 | 963.5 ± 2.4 | 966.5 ± 2.4 | 969.4 ± 2.4 | 972.2 ± 2.4 | 975 ± 2.4 | 977.7 ± 2.4 | 980.2 ± 2.4
x1 = 0.6009 | – | 987.5 ± 2.4 | 990.6 ± 2.4 | 993.6 ± 2.4 | 996.4 ± 2.4 | 999.3 ± 2.4 | 1002 ± 2.4 | 1004.6 ± 2.4 | –
x1 = 0.7 | 1011.7 ± 2.4 | 1014.2 ± 2.4 | 1017.2 ± 2.4 | 1020.2 ± 2.4 | 1023 ± 2.4 | 1025.8 ± 2.4 | 1028.5 ± 2.4 | 1031.2 ± 2.4 | –
x1 = 0.8008 | 1039 ± 2.4 | 1041.4 ± 2.4 | 1044.5 ± 2.4 | 1047.4 ± 2.4 | 1050.2 ± 2.4 | 1053 ± 2.4 | 1055.7 ± 2.4 | 1058.3 ± 2.4 | –
x1 = 0.9009 | 1066 ± 2.4 | 1068.5 ± 2.4 | 1071.5 ± 2.4 | 1074.4 ± 2.4 | 1077.2 ± 2.4 | 1080 ± 2.4 | 1082.6 ± 2.4 | 1085.2 ± 2.4 | –
